Test results reported in patent publication US8791132B2, “Compounds and methods for treatment of hypertension” (Medivation Technologies, Inc., priority 2011, dated 2014).
Several values for one entry are separate records, joined by “and”; a condition that tells them apart may be missing. Identical values can stand only once.

Tests used:
[1] = target: T1, human recombinant adrenergic α2B receptor (Homo sapiens, UniProt P18089); experiment: Radioligand binding, adrenergic α2B ([3H]Rauwolscine); conditions: for inhibition at 0.03 µM: read-out: Percentage inhibition of ligand binding, Adrenergic α2B (0.03 μM), compound at 0.03 μM; for inhibition at 0.03 µM / Percentage inhibition of ligand binding, Adrenergic α2B (0.03 μM): [3H]Rauwolscine, repeat datapoints each shown; for Percentage inhibition of ligand binding, Adrenergic α2B (0.03 μM): compound at 0.03 μM; for Ki: read-out: Ki α2B
T1 construct: expressed in transfected cells; host or cells: CHO-K1
T1 sequence (P18089 1-450): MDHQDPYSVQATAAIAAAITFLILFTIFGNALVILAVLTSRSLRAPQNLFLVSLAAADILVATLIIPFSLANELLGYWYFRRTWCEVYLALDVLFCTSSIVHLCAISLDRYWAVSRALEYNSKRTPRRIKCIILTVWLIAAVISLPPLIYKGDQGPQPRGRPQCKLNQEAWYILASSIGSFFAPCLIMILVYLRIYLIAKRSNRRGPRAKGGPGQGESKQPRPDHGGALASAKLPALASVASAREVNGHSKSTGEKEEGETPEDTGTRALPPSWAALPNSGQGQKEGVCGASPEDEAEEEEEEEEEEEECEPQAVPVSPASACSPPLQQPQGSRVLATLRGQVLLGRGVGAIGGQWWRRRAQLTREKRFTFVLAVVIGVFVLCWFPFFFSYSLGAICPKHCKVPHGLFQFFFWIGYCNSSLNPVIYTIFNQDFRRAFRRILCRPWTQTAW
Outline: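 Assay used CHO-K1-expressed human α2B receptor in Tris-HCl pH 7.4 buffer with MgCl2, EDTA and BSA; 60 min incubation at 25 °C.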

[2] = target: T2, rat adrenergic α1B receptor (Rattus norvegicus, UniProt P15823); experiment: Radioligand binding, adrenergic α1B ([3H]Prazosin); conditions: [3H]Prazosin, repeat datapoints each shown; for Percentage inhibition of ligand binding, Adrenergic α1B (0.1 μM): compound at 0.1 μM; for inhibition at 0.1 µM: read-out: Percentage inhibition of ligand binding, Adrenergic α1B (0.1 μM), compound at 0.1 μM; for inhibition at 0.03 µM: read-out: Percentage inhibition of ligand binding, Adrenergic α1B (0.03 μM), compound at 0.03 μM
T2 construct: rat adrenergic α1B receptor obtained from Wistar Rat liver; from tissue; host or cells: Wistar rat liver
T2 sequence (P15823 1-515): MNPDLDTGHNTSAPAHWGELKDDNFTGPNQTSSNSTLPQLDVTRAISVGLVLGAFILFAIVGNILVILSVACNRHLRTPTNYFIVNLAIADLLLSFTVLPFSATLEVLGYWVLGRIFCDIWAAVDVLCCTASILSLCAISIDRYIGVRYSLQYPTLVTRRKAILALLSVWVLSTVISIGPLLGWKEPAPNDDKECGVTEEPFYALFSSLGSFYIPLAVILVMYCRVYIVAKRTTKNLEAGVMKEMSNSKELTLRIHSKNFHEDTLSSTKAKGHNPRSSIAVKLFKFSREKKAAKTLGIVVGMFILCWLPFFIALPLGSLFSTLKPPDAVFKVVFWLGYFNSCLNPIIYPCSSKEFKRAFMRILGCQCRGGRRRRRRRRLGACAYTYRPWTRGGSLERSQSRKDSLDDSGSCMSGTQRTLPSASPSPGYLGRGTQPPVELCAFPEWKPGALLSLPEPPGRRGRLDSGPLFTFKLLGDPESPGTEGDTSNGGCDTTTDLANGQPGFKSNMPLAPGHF
Outline: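 Rat α1B receptor from Wistar rat liver was incubated with 0.25 nM [3H]prazosin for 60 min at 25 °C in 50 mM Tris-HCl, pH 7.4, 0.5 mM EDTA. Non-specific binding was defined with 10 μM phentolamine. Bound radioligand was measured by filtration and counting, reported as percent inhibition of specific binding.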

[3] = target: T3, human recombinant adrenergic α2A receptor (Homo sapiens, UniProt P08913); experiment: Radioligand binding, adrenergic α2A ([3H]MK-912); conditions: for Percentage inhibition of ligand binding, Adrenergic α2A (0.1 μM): compound at 0.1 μM; for inhibition at 0.03 µM: read-out: Percentage inhibition of ligand binding, Adrenergic α2A (0.03 μM), compound at 0.03 μM; for inhibition at 0.1 µM: read-out: Percentage inhibition of ligand binding, Adrenergic α2A (0.1 μM), compound at 0.1 μM
T3 construct: expressed in transfected cells; host or cells: insect Sf9 cells
T3 sequence (P08913 1-465): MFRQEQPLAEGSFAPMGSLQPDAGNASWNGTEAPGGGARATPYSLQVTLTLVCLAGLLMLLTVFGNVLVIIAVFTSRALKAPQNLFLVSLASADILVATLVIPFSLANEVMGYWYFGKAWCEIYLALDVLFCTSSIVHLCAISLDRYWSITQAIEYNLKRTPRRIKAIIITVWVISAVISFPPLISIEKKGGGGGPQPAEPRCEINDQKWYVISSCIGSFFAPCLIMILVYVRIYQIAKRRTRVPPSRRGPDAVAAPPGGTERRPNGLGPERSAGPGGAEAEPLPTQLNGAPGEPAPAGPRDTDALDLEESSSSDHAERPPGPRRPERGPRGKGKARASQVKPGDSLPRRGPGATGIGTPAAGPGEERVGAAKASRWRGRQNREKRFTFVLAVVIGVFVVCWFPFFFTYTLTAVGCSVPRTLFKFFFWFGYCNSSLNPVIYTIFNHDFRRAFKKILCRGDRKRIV
Outline: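 Displacement of 1 nM [3H]MK-912 from receptor produced in insect Sf9 cells was measured after 60 min at 25 °C. Readout: percent inhibition of specific binding.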

[4] = [3H]MK-912, repeat datapoints each shown

Row | SMILES | inhibition at 0.03 µM [1] [%] | Percentage inhibition of ligand binding, Adrenergic α1B (0.1 μM) [2] | Percentage inhibition of ligand binding, Adrenergic α2A (0.1 μM) [3, 4] | Percentage inhibition of ligand binding, Adrenergic α2B (0.03 μM) ([1]; 0.03 µM) | also measured
1 | Cc1cnc2c(c1)c1c(n2CC(O)c2ccc(C#N)nc2)CCN(C)C1 (single isomer, unassigned) [II-114a, 5-[2-(3,6-dimethyl-5,6,7,8-tetrahydro-1,6,9-triaza-fluoren-9-yl)-1-hydroxy-ethyl]-pyridine-2-carbonitrile] | 40 | 45% | 12% |  | 
2 | Cc1cnc2c(c1)c1c(n2CC(O)c2ccc(C#N)nc2)CCN(C)C1 (single isomer, unassigned) [II-114b, 5-[2-(3,6-dimethyl-5,6,7,8-tetrahydro-1,6,9-triaza-fluoren-9-yl)-1-hydroxy-ethyl]-pyridine-2-carbonitrile] |  | 7% | −5% |  | Percentage inhibition of ligand binding, Adrenergic α2B (0.03 μM) [1]: 40%
3 | CC(O)(Cn1c2c(c3cc(Cl)ccc31)CN(C1CCC1)CC2)c1cccnc1 (single isomer, unassigned) [II-118b] |  | 11% | 5% | −3% | 
4 | Cc1ccc2c(c1)c1c(n2CC(O)c2ccc(F)cc2)CCN2CCCC12 (single isomer, unassigned) [II-120a, 1-(4-fluoro-phenyl)-2-(9-methyl-1,2,3,4,5,10c-hexahydro-3a,6-diaza-cyclopenta[c]fluoren-6-yl)-ethanol] | 101 |  | 65% |  | inhibition at 0.1 µM [2]: 99%
5 | Cc1ccc2c(c1)c1c(n2CC(O)c2ccc(F)cc2)CCN2CCCC12 (single isomer, unassigned) [II-120b, 1-(4-fluoro-phenyl)-2-(9-methyl-1,2,3,4,5,10c-hexahydro-3a,6-diaza-cyclopenta[c]fluoren-6-yl)-ethanol] |  | 100% | 98% | 98% | 
6 | Cc1ccc2c(c1)c1c(n2CC(C)(O)c2ccc(F)cc2)CCN2CCCC12 (single isomer, unassigned) [II-121a, 2-(4-fluoro-phenyl)-1-(9-methyl-1,2,3,4,5,10c-hexahydro-3a,6-diaza-cyclopenta[c]fluoren-6-yl)-propan-2-ol] | 103 | 98% | 92% | 104% | inhibition at 0.03 µM [2]: 90%; inhibition at 0.1 µM [2]: 97%; Ki [3]: 4.52 nM; inhibition at 0.03 µM [3, 4]: 65%; inhibition at 0.1 µM [3, 4]: 91%
7 | Cc1ccc2c(c1)c1c(n2CC(C)(O)c2ccc(F)cc2)CCN2CCCC12 (single isomer, unassigned) [II-121b, 2-(4-fluoro-phenyl)-1-(9-methyl-1,2,3,4,5,10c-hexahydro-3a,6-diaza-cyclopenta[c]fluoren-6-yl)-propan-2-ol] |  | 93% and 96% | 80% and 85% | 100% and 103% | Ki [1]: 0.22 nM; Percentage inhibition of ligand binding, Adrenergic α1B (0.03 μM) ([2]; compound at 0.03 μM, 0.03 µM): 77%; Ki [3]: 9.18 nM; Percentage inhibition of ligand binding, Adrenergic α2A (0.03 μM) ([3]; compound at 0.03 μM, [3H]MK-912, repeat datapoints each shown, 0.03 µM): 54%
8 | Cc1cc2c3c(n(CC(C)(O)c4cccnc4)c2cc1Cl)CCN(C)C3 (single isomer, unassigned) [II-123a, 1-(7-chloro-2,8-dimethyl-3,4-dihydro-1H-pyrido[4,3-b]indol-5(2H)-yl)-2-(pyridin-3-yl)propan-2-ol] |  |  | 16% | 62% | inhibition at 0.1 µM [2]: 41%
9 | Cc1cc2c3c(n(CC(C)(O)c4cccnc4)c2cc1Cl)CCN(C)C3 (single isomer, unassigned) [II-123b, 1-(7-chloro-2,8-dimethyl-3,4-dihydro-1H-pyrido[4,3-b]indol-5(2H)-yl)-2-(pyridin-3-yl)propan-2-ol] |  | 61% | 75% | 93% | 
10 | Cc1ccc2c(c1Cl)c1c(n2CC(C)(O)c2cccnc2)CCN(C)C1 (single isomer, unassigned) [II-124a, 1-(9-chloro-2,8-dimethyl-3,4-dihydro-1H-pyrido[4,3-b]indol-5(2H)-yl)-2-(pyridin-3-yl)propan-2-ol] | 26 | −2% | 23% |  | 
11 | Cc1ccc2c(c1Cl)c1c(n2CC(C)(O)c2cccnc2)CCN(C)C1 (single isomer, unassigned) [II-124b, 1-(9-chloro-2,8-dimethyl-3,4-dihydro-1H-pyrido[4,3-b]indol-5(2H)-yl)-2-(pyridin-3-yl)propan-2-ol] |  | 10% | 7% | 18% | 
12 | Cc1cc(C)c2c(c1)c1c(n2CC(O)c2ccncc2)CCN2CCCC12 (single isomer, unassigned) [II-125a, 2-(8,10-dimethyl-2,3,5,6-tetrahydro-1H-indolizino[7,8-b]indol-7(11cH)-yl)-1-(pyridin-4-yl)ethanol] |  | 92% | 62% | 100% | 
13 | Cc1cc(C)c2c(c1)c1c(n2CC(O)c2ccncc2)CCN2CCCC12 (single isomer, unassigned) [II-125b, 2-(8,10-dimethyl-2,3,5,6-tetrahydro-1H-indolizino[7,8-b]indol-7(11cH)-yl)-1-(pyridin-4-yl)ethanol] | 103 | 102% | 98% | 106% | Ki [1]: 0.16 nM; inhibition at 0.03 µM [2]: 89%; inhibition at 0.1 µM [2]: 97%; Ki [3]: 1.21 nM; inhibition at 0.03 µM [3, 4]: 89%; inhibition at 0.1 µM [3, 4]: 97%
14 | Cc1cc(C)c2c(c1)c1c(n2CC(O)c2ccncc2)CCN2CCCC12 (single isomer, unassigned) [II-125c, 2-(8,10-dimethyl-2,3,5,6-tetrahydro-1H-indolizino[7,8-b]indol-7(11cH)-yl)-1-(pyridin-4-yl)ethanol] |  | 42% | 9% | 67% | 
